According to PMC6934700, “Structure-Guided Design of a Fluorescent Probe for the Visualization of FtsZ in Clinically Important Gram-Positive and Gram-Negative Bacterial Pathogens” (Scientific Reports, 2019):

Biological target: T1, FtsZ in E. faecalis ATCC 29212 cells (Enterococcus faecalis, UniProt O08439)
T1 construct: host or cells: E. faecalis ATCC 29212
Assay: FtsZ visualization by fluorescence microscopy in live cells
Format: cell-based
Settings: 1 µg/mL for 5 minutes
Protocol: All differential interference contrast (DIC) and fluorescence microscopy experiments were conducted using an Olympus BX50 microscope equipped with an X-cite Exacte 200 W mercury lamp, a 100× Olympus UPLSAPO oil immersion objective (1.40 aperture), as well as both Chroma ET-EGFP (FITC/Cy2) and ET mCherry, Texas Red filters. Images were captured using a QImaging Retiga R3 charge-coupled device (CCD) camera and the Ocular-Version 2.0 software package (QImaging).
For visualizing FtsZ in Gram-positive bacteria using BOFP, the bacterial cells were grown to log-phase in media suitable for each individual pathogen. Specifically, S. aureus NRS705 (MRSA) was grown in tryptic soy broth (TSB), E. faecalis ATCC 29212 and E. faecium ATCC 19434 were grown in lactobacilli MRS broth, S. agalactiae ATCC 12386 and S. pneumoniae ATCC 49619 were grown in TH broth, and S. pyogenes ATCC 19615 was grown in CAMH broth supplemented with 3% (v/v) LHB. For each Gram-positive bacterial strain, a total of 1 mL of cell culture was centrifuged at 15,000 × g for 1 minute and washed 2–3 times with 1 mL of PBS. After the final wash, the pelleted cells were resuspended in 500 µL of PBS containing 1 µg/mL of BOFP and incubated in the dark for 5 minutes at room temperature. The cells were then centrifuged at 15,000 × g for 1 minute, washed twice with 1 mL of PBS, and subsequently resuspended in 200 µL of PBS. […]

T1 sequence (O08439 whole entry): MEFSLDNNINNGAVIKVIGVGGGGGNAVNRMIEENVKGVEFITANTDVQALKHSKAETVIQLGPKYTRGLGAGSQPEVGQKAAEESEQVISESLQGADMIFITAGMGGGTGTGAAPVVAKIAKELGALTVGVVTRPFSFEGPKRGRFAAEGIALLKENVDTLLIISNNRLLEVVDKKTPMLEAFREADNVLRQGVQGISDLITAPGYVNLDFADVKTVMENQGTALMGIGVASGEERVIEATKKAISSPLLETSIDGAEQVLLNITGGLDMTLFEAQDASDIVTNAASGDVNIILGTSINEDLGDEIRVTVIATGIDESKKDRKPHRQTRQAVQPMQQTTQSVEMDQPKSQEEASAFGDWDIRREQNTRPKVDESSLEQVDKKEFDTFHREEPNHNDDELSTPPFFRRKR

CC1=CC(C)=[N+]2C1=Cc1ccc(CCC(=O)OCC(Oc3ccc(F)c(C(N)=O)c3F)c3nc(-c4ccc(C(F)(F)F)cc4)c(Br)o3)n1[B-]2(F)F (stereo not shown) [BOFP]
Fluorescence staining / FtsZ labeling in live cells: bright bands of fluorescence staining are clearly visible at midcell
